{"source": "patent US8053627B2", "about": "“Methods for treating demyelination disorders” (University of Chicago, priority 2005, dated 2011)", "key": {"[1]": {"system": "Hippocampal organotypic cultures", "experiment": "Hippocampal organotypic cultures (HOC), in vitro model of myelination, MBP Western blot", "type": "cell-based", "settings": "7 days of 100 U/ml IFN-γ exposure", "procedure": "HOCs, were prepared and maintained as described previously (Kunkler and Kraig (1997) J Cereb Blood Flow Metab. 17:2643), and were maintained in vitro for 7 days before use. SAL at various concentrations was combined with 100 U/ml IFN-γ and added to the HOC cultures for 7 days. […] After 7 days of 100 U/ml IFN-γ exposure, the levels of MBP decreased approximately 80% in the HOCs (FIG. 29)."}, "[2]": {"system": "corpus callosum of double transgenic mice treated with cuprizone", "experiment": "Cuprizone-induced demyelination/remyelination in GFAP/tTA; TRE/IFN-γ double transgenic mice (DOX− expresses IFN-γ)", "type": "in vivo", "procedure": "The effects of IFN-γ on demyelination were evaluated in a cuprizone animal model using transgenic mice that allow for temporally regulated delivery of IFN-γ using the tetracycline controllable system (Lin, et al. (2004) J. Neurosci. 24: 10074-10083). The transgenic mice were generated by mating line 110 GFAP/tTA mice on the C57BL/6 background with line 184 TRE/IFN-γ on the C57BL/6 background to produce GFAP/tTA; TRE/IFN-γ double transgenic mice (Lin, et al. (2004) J. Neurosci. 24: 10074-10083). Transcriptional activation of the TRE/IFN-γ transgene by tTA was repressed in the control (DOX+) mice by adding 0.05 mg/ml doxycycline to the drinking water which was provided ad libitum from the day of conception. The DOX+ double transgenic mice were GFAP/tTA; TRE/IFN-γ double transgenic animals fed cuprizone chow and never released from the doxycycline solution. DOX− double transgenic mice were GFAP/tTA; TRE/IFN-γ double transgenic animals fed cuprizone chow and released from doxycycline to induce expression of IFN-γ.\nDemyelination was induced in 6-week-old DOX+ and DOX− male mice by feeding the mice a diet of milled mouse chow containing 0.2% cuprizone (Sigma-Aldrich, St. Louis, […].) for up to 6 weeks. Subsequently, both groups of mice were returned to a normal diet for up to 3 weeks to allow remyelination to occur. All animal procedures were conducted in complete compliance with the NIH Guide for the Care and Use of Laboratory Animals and were approved by the Institutional Animal Care and Use Committee of The University of Chicago.\nThe expression of IFN-γ in these animals was examined by Enzyme-Linked Immunosorbent Assay (ELISA) analysis as follows. Spinal cord and forebrains were removed, rinsed in ice cold PBS, and immediately homogenized in five volumes of PBS with complete protease cocktail (Roche, Indianapolis, Ind.) using a motorized homogenizer. After incubation on ice for 5 min the extracts were cleared by centrifugation at 14000 rpm for 10 min. The protein content of each extract was determined by the DC protein assay (Bio-Rad, Hercules, Calif.). ELISA assays were performed using Mouse IFN-γ Quantikine ELISA kit (R&D system, Minneapolis, Minn.) and MBP antibodies (1:1000; Sternberger Monoclonals) according to the manufacture's instructions.\nReal time PCR was used to determine the effect of IFN-yon the expression of MHC-1. RNA was isolated from the corpus callosum (Jurevics, et al., 2002) using Trizol reagent (Invitrogen, Carlsbad, Calif.) and treated with DNAseI (Invitrogen, Carlsbad, Calif.) to eliminate genomic DNA. Reverse transcription was performed using Superscript First Strand Synthesis System for RT-PCR kit (Invitrogen, Carlsbad, Calif.). Real-time PCR was performed with iQ supermix (Bio-Rad, Hercules Calif.) on a Bio-Rad iQ real-time PCR detection system (Bio-Rad, Hercules Calif.). The primers and probes (Integrated DNA Technologies Inc., Coralville, Iowa) for real-time PCR were as follows:\nThe effect of INF-γ on the population of oligodendrocytes was evaluated by immunohistochemical analysis of oligodendrocytes using an anti-CC1 antibody (APC7, 1:50; EMD Biosciences, Inc., La Jolla, Calif.) Immunohistochemistry was perfomed on brain sections obtained from mice that were first anesthetized mice and perfused through the left cardiac ventricle with 4% paraformaldehyde in 0.1M PBS. The brains were removed, postfixed with paraformaldehyde, cryopreserved in 30% sucrose, embedded in OCT and frozen on dry ice. Frozen sections were cut in a cryostat at a thickness of 10 μm. […]"}}, "data": [{"substance": "IFN-γ: pleotropic cytokine secreted by activated T lymphocytes and natural killer cells; delivered to the CNS by transgene or added as recombinant protein", "values": [{"measurement": "decrease of MBP levels in the HOCs", "setting": "[1]", "result": "approximately 80%"}, {"measurement": "CC1 positive oligodendrocytes within the corpus callosum", "setting": "[2]; DOX− mice, 8 weeks", "result": "78±12.7 /0.04 mm2"}, {"measurement": "NG2 positive OPCs in the corpus callosum", "setting": "[2]; DOX− mice, week 4 of cuprizone treatment", "result": "46±4.24 /0.04 mm^2"}, {"measurement": "NG2 positive OPCs in the corpus callosum", "setting": "[2]; DOX− mice, week 6", "result": "31.5±0.71 /0.04 mm^2"}, {"measurement": "expression of myelin genes MBP, PLP and CGT", "setting": "[2]; DOX− mice, week 6 and week 8", "result": "significantly depressed"}, {"measurement": "remyelinated axons (EM)", "setting": "[2]; DOX− mice, week 8", "result": "26.9%±7%"}, {"measurement": "effect on the initial pathological processes induced by cuprizone exposure", "setting": "[2]; demyelination phase", "result": "does not have a significant effect"}, {"measurement": "expression of MHC-I in the corpus callosum (real-time PCR)", "setting": "[2]; during remyelination", "result": "significant increase"}]}]}
